Laboratory results taken from publication PMC11645267, “Novel pharmacologic inhibition of lysine-specific demethylase 1 as a potential therapeutic for glioblastoma” (Cancer Gene Therapy, 2024).
Like-named read-outs stand apart in the source and are kept apart here.

Assays:
LN229 = test: Western blot of global histone modifications; format: cell-based; conditions: LN229, 5 μM, 96 h
Experimental: The effects of S2172 on global histone modifications in GSCs were examined using western blot analysis. GSC cells were treated with 5 μM of S2172 since […] of the cells are still viable at this concentration (Fig. 2, Supplementary Fig. S1E). […] Treatment of GSCs with S2172 increased the overall levels of H3K4me2 as well as H3K9me2. However, these changes were not statistically significant (Fig. 2A, B). […]
instructions. For GSC cells, the CellTiter-Glo 3D Viability Assay (Promega, Madison, WI, USA) was used to measure the living cells. All proliferation experiments were repeated […]
The density of bands was quantified using ImageJ software (https://imagej.nih.gov/ij/). […]
When mice were scanned with MRI, mice were anesthetized with isoflurane (3% in air) and placed in MRS 3017 Benchtop MRI Systems (MR Solutions, Guildford, UK). Using MRI images, tumor volumes were obtained by compiling tumor areas from all slices that contained tumors and calculated by ImageJ software (https://imagej.nih.gov/ij/) {Towner, […]
A. Western blot analysis (left panel) of H3K4me1, H3K4me2, H3K4me3, and H3K9me2 after treatment with either DMSO or S2172 5μM for 96 h in LN229. […] Quantification of signal intensity of western blot (right panel). […] Ratio was calculated by dividing cleaved band intensity by total protein band intensity. […]

MAO-A = target: T1, MAO-A (Homo sapiens, UniProt P21397); test: Enzyme inhibition assay (in vitro peroxidase assay) against MAO-A
T1 sequence (P21397 1-527): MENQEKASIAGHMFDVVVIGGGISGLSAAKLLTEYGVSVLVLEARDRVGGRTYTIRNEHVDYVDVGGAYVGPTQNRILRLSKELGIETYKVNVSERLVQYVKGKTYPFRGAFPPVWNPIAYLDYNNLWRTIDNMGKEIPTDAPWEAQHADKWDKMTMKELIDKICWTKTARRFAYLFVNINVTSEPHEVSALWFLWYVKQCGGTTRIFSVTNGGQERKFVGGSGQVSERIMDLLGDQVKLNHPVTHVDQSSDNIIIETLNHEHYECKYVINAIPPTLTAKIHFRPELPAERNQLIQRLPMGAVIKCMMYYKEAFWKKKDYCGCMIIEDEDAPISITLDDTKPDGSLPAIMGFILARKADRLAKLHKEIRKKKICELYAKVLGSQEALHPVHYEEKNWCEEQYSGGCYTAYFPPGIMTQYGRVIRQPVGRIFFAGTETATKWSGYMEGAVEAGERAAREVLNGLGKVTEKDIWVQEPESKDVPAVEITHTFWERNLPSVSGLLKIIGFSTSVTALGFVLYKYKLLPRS
Experimental: Enzyme inhibition assays against LSD1, LSD2, MAO-A, and MAO-B were performed as previously described [25]. Technical replicates, n = 3.

[1] = Pharmacokinetic analysis, plasma and brain levels; format: in vivo; conditions: male, Crl:CD1 (ICR), mouse, ip, ICR mice, n = 3
Experimental: Male Crl:CD1 (ICR) mice from […], Japan (8 weeks old, n = 3) received a single intraperitoneal injection of S2172 at 30 mg/kg in 5 mL/kg of 15% DMSO/17.5% Cremophor EL/8.75% Ethanol/8.75% HCO-40/50% PBS. Serial blood sampling was conducted from the jugular vein at 0.25, 0.5, 1, 2, 4, and 6 hr time points. At 0.5 h after injection, mice were euthanized, underwent hemoperfusion, and their brain tissue was harvested, homogenized and diluted 4-fold with water. Blood and brain homogenate samples were treated with acetonitrile and centrifuged. The supernatant solution was used for drug level measurement by LC/MS/MS. Pharmacokinetic parameters were calculated using Moment method analysis.

[2] = plasma, single intraperitoneal injection 30 mg/kg

- Ki (MAO-A): > 250 µM
- Inhibition of MAO-A (in words) (MAO-A; in vitro peroxidase assay): not inhibited
- concentration at 0.5 hr ([1]; brain, single intraperitoneal injection 30 mg/kg, read-out: Brain concentration at 0.5 hr): 1520 ± 140 nM
- Kp at 0.5 h ([1]; brain/plasma, 0.5 hr after single intraperitoneal injection 30 mg/kg, read-out: Brain/plasma ratio): 2.06 ± 0.39
- Cmax [1, 2]: 1200 ± 120 nM
- Tmax [1, 2]: 0.25 h
- half-life [1, 2]: 4.98 ± 1.64 h
- AUC(0-t) ([1]; plasma, single intraperitoneal injection 30 mg/kg, read-out: AUC0–6 h): 1.11 ± 0.08 µM·h
- concentration at 0.5 hr ([1]; plasma, single intraperitoneal injection 30 mg/kg, read-out: Plasma concentration at 0.5 hr): 750 ± 90 nM
Structure (SMILES): NC1CCC(NC2CC2c2cc(F)cc(F)c2OCc2ccccc2)CC1 (stereo not shown) [S2172]
- level of H3K4me2 (LN229): significantly increased
